Assay [1] deals with Recombinant human DDR2 (aa427-855 containing a GST tag) (Homo sapiens (Human), UniProt Q16832). The assay is described as follows: LanthaScreen Eu Kinase Binding Assay DDR2. Conditions: Kinase Tracer 178 10 nM, at least two independent replicates; for IC50: read-out: DDR2 pIC50 (converted). The gist of the method:
(§1)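 DDR1 (2.5 nM) or DDR2 (1.75 nM) was preincubated with compound 30 min at RT in 50 mM HEPES pH 7.3, 10 mM MgCl2, 1 mM EGTA, 0.01% Tween. Eu-anti-GST and Tracer 178 were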

Assay [2] has as its target Recombinant human DDR1 (aa440-876 containing a GST tag) (Homo sapiens (Human), UniProt Q08345). The assay is described as follows: LanthaScreen Eu Kinase Binding Assay DDR1. The following applies: Kinase Tracer 178 5 nM, at least two independent replicates; for IC50: read-out: DDR1 pIC50 (converted). The gist of the method:
as §1
On the technique in general: Time-resolved FRET reads energy transfer from a long-lived donor to a nearby acceptor.

Chain of Recombinant human DDR2 (aa427-855 containing a GST tag) (Q16832 427-855): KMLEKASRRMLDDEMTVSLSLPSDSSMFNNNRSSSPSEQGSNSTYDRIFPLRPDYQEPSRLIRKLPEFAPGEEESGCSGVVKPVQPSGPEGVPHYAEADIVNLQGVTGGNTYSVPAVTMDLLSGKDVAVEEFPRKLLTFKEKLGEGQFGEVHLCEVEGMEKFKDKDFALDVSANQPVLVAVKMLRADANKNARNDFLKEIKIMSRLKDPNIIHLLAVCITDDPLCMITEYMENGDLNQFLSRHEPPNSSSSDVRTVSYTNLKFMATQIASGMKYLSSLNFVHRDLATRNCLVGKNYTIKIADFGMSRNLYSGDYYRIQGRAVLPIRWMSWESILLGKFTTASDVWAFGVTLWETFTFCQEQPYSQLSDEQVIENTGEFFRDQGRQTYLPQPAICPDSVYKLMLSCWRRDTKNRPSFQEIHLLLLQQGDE
Chain of Recombinant human DDR1 (aa440-876 containing a GST tag) (Q08345 other isoform, or with tags, fused parts or gaps): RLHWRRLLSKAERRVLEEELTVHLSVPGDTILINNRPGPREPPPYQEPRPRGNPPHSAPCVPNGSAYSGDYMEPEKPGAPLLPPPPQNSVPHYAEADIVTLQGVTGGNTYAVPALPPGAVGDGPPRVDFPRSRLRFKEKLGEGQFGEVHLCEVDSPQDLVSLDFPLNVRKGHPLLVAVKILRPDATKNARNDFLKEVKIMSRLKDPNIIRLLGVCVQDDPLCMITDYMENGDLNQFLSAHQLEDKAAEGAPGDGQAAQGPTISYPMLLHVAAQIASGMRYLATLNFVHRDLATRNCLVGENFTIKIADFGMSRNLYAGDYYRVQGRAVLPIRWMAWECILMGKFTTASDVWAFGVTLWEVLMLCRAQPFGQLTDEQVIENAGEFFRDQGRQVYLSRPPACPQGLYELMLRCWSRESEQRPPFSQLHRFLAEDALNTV

Regarding `Cn1ncc2c(-c3cc(F)c(-n4c(=O)n(CC(=O)NCC(F)(F)F)c5ccccc54)c(F)c3)cncc21` [Example 89, 2-[3-[2,6-difluoro-4-(1-methylpyrazolo[3,4-c]pyridin-4-yl)phenyl]-2-oxo-benzimidazol-1-yl]-N-(2,2,2-trifluoroethyl)acetamide], the “DDR2 pIC50” value in assay [1] was “D (pIC50≤6)”. Further, the IC50 in assay [2] was 10 to 100 nM.

As for `Cn1ncc2c(-c3ccc(-n4c(=O)n(CC(=O)NCC(F)(F)F)c5ccccc54)nc3)cncc21` [Example 63, 2-[3-[5-(1-methylpyrazolo[3,4-c]pyridin-4-yl)-2-pyridyl]-2-oxo-benzimidazol-1-yl]-N-(2,2,2-trifluoroethyl) acetamide], the “DDR2 pIC50” value in assay [1] is on record as “D (pIC50≤6)”. Further, the IC50 in assay [2] is 100 to 1000 nM.

For the compound `Cc1cc(-c2cncc3c2cnn3C)ccc1-n1c(=O)n(CC(=O)NCC(F)(F)F)c2cccc(Cl)c21` [Example 83, 2-[4-chloro-3-[2-methyl-4-(1-methylpyrazolo[3,4-c]pyridin-4-yl)phenyl]-2-oxo-benzimidazol-1-yl]-N-(2,2,2-trifluoroethyl)acetamide], the IC50 in assay [1] was 100 to 1000 nM. The “DDR1 pIC50” value in assay [2] is reported as “A (pIC50>8)”.

For `Cc1cccc2c1n(-c1ccc(-c3cncc4c3cnn4C)nc1)c(=O)n2CC(=O)NCC(F)(F)F` [Example 50, 2-[4-methyl-3-[6-(1-methylpyrazolo[3,4-c]pyridin-4-yl)-3-pyridyl]-2-oxo-benzimidazol-1-yl]-N-(2,2,2-trifluoroethyl)acetamide], in assay [1], the IC50 was 10 to 100 nM. In addition, the “DDR1 pIC50” value in assay [2] is recorded as “A (pIC50>8)”.

As to `Cc1cc(-c2cncc3c2c(C)nn3C)ncc1-n1c(=O)n(CC(=O)NCC(F)(F)F)c2cccc(C)c21` [Example 108], the “DDR2 pIC50” value in assay [1] is listed as “D (pIC50≤6)”. Further, in assay [2], the IC50 is 100 to 1000 nM.

Turning to `Cn1ncc2c(-c3ccc(-n4c(=O)n(CC(=O)NCC(F)(F)F)c5cccnc54)cc3)cncc21` [Example 76, 2-[3-[4-(1-methylpyrazolo[3,4-c]pyridin-4-yl)phenyl]-2-oxo-imidazo[4,5-b]pyridin-1-yl]-N-(2,2,2-trifluoroethyl)acetamide], the “DDR2 pIC50” value in assay [1] is “D (pIC50≤6)”. For the same compound, the “DDR1 pIC50” value in assay [2] is “D (pIC50≤6)”.

For `Cc1cccc2c1n(-c1ncc(-c3cncc4c3cnn4C)cn1)c(=O)n2CC(=O)NCC(F)(F)F` [Example 66, 2-[4-methyl-3-[5-(1-methylpyrazolo[3,4-c]pyridin-4-yl)pyrimidin-2-yl]-2-oxo-benzimidazol-1-yl]-N-(2,2,2-trifluoroethyl)acetamide], the “DDR2 pIC50” value in assay [1] is given as “D (pIC50≤6)”. The IC50 in assay [2] is 10 to 100 nM.

With `Cc1nc(-c2cncc3c2cnn3C)ccc1-n1c(=O)n(CC(=O)NCC(F)(F)F)c2cccc(C)c21` [Example 95, 2-[4-methyl-3-[2-methyl-6-(1-methylpyrazolo[3,4-c]pyridin-4-yl)-3-pyridyl]-2-oxo-benzimidazol-1-yl]-N-(2,2,2-trifluoroethyl)acetamide], the IC50 in assay [1] was 100 to 1000 nM. Also, the “DDR1 pIC50” value in assay [2] is on record as “A (pIC50>8)”.

As to `Cc1cc(-c2cncc3[nH]ncc23)ncc1-n1c(=O)n(CC(=O)NCC(F)(F)F)c2cccc(C)c21` [Example 93, 2-[4-methyl-3-[4-methyl-6-(1H-pyrazolo[3,4-c]pyridin-4-yl)-3-pyridyl]-2-oxo-benzimidazol-1-yl]-N-(2,2,2-trifluoroethyl)acetamide], the IC50 in assay [1] is 100 to 1000 nM. In addition, in assay [2], the “DDR1 pIC50” value is on record as “A (pIC50>8)”.

Take `Cc1cccc2c1n(-c1cnc(-c3cncc4c3cnn4C)cn1)c(=O)n2CC(=O)N[C@H](C)C(F)(F)F` [Example 48, 2-[4-methyl-3-[5-(1-methylpyrazolo[3,4-c]pyridin-4-yl)pyrazin-2-yl]-2-oxo-benzimidazol-1-yl]-N-[(1R)-2,2,2-trifluoro-1-methyl-ethyl]acetamide]: in assay [1], the “DDR2 pIC50” value is reported as “D (pIC50≤6)”. For the same compound, in assay [2], the IC50 is 10 to 100 nM.

Consider `Cn1ncc2c(-c3ccc(-n4c(=O)n(CC(=O)N5CCC[C@H]5C(F)(F)F)c5cccnc54)cc3)cncc21` [Example 79, 3-[4-(1-methylpyrazolo[3,4-c]pyridin-4-yl)phenyl]-1-[2-oxo-2-[(2S)-2-(trifluoromethyl)pyrrolidin-1-yl]ethyl]imidazo[4,5-b]pyridin-2-one], for which the “DDR2 pIC50” value in assay [1] was “D (pIC50≤6)”. In assay [2], the IC50 is 10 to 100 nM.

`Cn1ncc2c(-c3ccc(-n4c(=O)n(CC(=O)N5CCCC5C(F)(F)F)c5ccccc54)cc3)cncc21` (centres unmarked) [Example 18, 1-[4-(1-methylpyrazolo[3,4-c]pyridin-4-yl)phenyl]-3-[2-oxo-2-[2-(trifluoromethyl)pyrolidin-1-yl]ethyl]benzimidazol-2-one]: the IC50 in assay [1] was 10 to 100 nM. In addition, the “DDR1 pIC50” value in assay [2] is listed as “A (pIC50>8)”.

Regarding `Cc1cc(-c2cncc3[nH]ncc23)ccc1-n1c(=O)n(CC(=O)NCC(F)(F)F)c2ccccc21` [Example 14, 2-[3-[2-methyl-4-(1H-pyrazolo[3,4-c]pyridin-4-yl)phenyl]-2-oxobenzimidazol-1-yl]-N-(2,2,2-trifluoroethyl)acetamide], in assay [1], the IC50 was 100 to 1000 nM. The “DDR1 pIC50” value in assay [2] is given as “A (pIC50>8)”.

For the compound `COc1cc(-c2cncc3c2cnn3C)ccc1-n1c(=O)n(CC(=O)NCC(F)(F)F)c2ccccc21` [Example 88, 2-[3-[2-methoxy-4-(1-methylpyrazolo[3,4-c]pyridin-4-yl)phenyl]-2-oxo-benzimidazol-1-yl]-N-(2,2,2-trifluoroethyl)acetamide], in assay [1], the “DDR2 pIC50” value is “D (pIC50≤6)”. In assay [2], the IC50 was 100 to 1000 nM.

On to `Cn1ncc2c(-c3ccc(-n4c(=O)n(CC(=O)N5CCCC(C(F)(F)F)C5)c5ccccc54)cc3)cncc21` (centres unmarked) [Example 23, 1-[4-(1-methylpyrazolo[3,4-c]pyridin-4-yl)phenyl]-3-[2-oxo-2-[3-(trifluoromethyl)-1-piperidyl]ethyl]benzimidazol-2-one], for which, in assay [1], the “DDR2 pIC50” value is on record as “D (pIC50≤6)”. In addition, the “DDR1 pIC50” value in assay [2] is listed as “A (pIC50>8)”.

`Cc1nc(-n2c(=O)n(CC(=O)NCC(F)(F)F)c3cccc(C)c32)cnc1-c1cncc2[nH]nc(C)c12` [Example 105, 2-[4-methyl-3-[6-methyl-5-(3-methyl-1H-pyrazolo[3,4-c]pyridin-4-yl)pyrazin-2-yl]-2-oxo-benzimidazol-1-yl]-N-(2,2,2-trifluoroethyl)acetamide]: the IC50 is 100 to 1000 nM in assay [1] and 10 to 100 nM in assay [2].

Values taken from patent US20260055102A1 (Redx Pharma Limited, priority 2022, published 2026).
